In test [1] the test system is IFNα-induced STAT1 phosphorylation (JAK1/TYK2 pathway). As to the kind of experiment: Human whole blood assay (hWBA), IFNα stimulation, phospho-STAT1 on CD4+ cells. It counts as cell-based. The following applies: 6 different donors. As for the experimental part: A flow cytometry analysis was performed to establish JAK1 over JAK2 compound selectivity ex vivo using human whole blood. Therefore, blood is taken from human volunteers who gave informed consent. Blood is then equilibrated for 30 min at 37° C. under gentle rocking, then aliquoted in Eppendorf tubes. Compound is added at different concentrations and incubated at 37° C. for 30 min under gentle rocking and subsequently stimulated for 20 min at 37° C. under gentle rocking with interleukin 6 (IL-6) for JAK1-dependent pathway stimulation, Interferon alpha (IFNα) for JAK1/TYK2 pathway stimulation, interleukin 2 (IL-2) for JAK1/JAK3 pathway stimulation or GM-CSF for JAK2-dependent pathway stimulation. Phospho-STAT1 (for IL-6- and IFNα-stimulated cells) and phospho-STAT5 (for IL-2- and GM-CSF-stimulated cells) levels are then evaluated using FACS analysis. […]
Cells were then washed once with 1×PBS and analyzed on a FACSCanto II flow cytometer (BD Biosciences).
50,000 total events were counted and Phospho-STAT1 positive cells were measured after gating on CD4+ cells, in the lymphocyte gate for IL-6- and IFNα-stimulated cells. Phospho-STAT5 positive cells were measured after gating on CD4+ cells, in the lymphocyte gate for IL-2-stimulated cells. Phospho-STAT5 positive cells were measured after gating on CD33+ cells. […]

Test [2] deals with T1, Recombinant human JAK1 catalytic domain (Homo sapiens, UniProt P23458).
T1 construct: amino acids 866-1154; catalog number PV4774; purchased Invitrogen PV4774
Nature of the test: JAK1 assay polyGT substrate. Type of test: biochemical. As for the experimental part:
Recombinant human JAK1 catalytic domain (amino acids 866-1154; catalog number PV4774) was purchased from Invitrogen. 25 ng of JAK1 was incubated with 6.25 μg polyGT substrate (Sigma catalog number P0275) in kinase reaction buffer (15 mM Hepes pH7.5, 0.01% Tween20, 10 mM MgCl2, 2 μM non-radioactive ATP, 0.25 μCi ^33P-gamma-ATP (Perkin Elmer, catalog number NEG602K001MC) final concentrations) with or without 5 μL containing test compound or vehicle (DMSO, 1% final concentration), in a total volume of 25 μL, in a polypropylene 96-well plate (Greiner, V-bottom). After 75 min at 30° C., reactions were stopped by adding 25 μL/well of 150 mM phosphoric acid. […] 40 μL/well of Microscint-20 was added, the top of the plates was sealed and readout was performed using the Topcount (Perkin Elmer). Kinase activity was calculated by subtracting counts per min (cpm) obtained in the presence of a positive control inhibitor (10 μM staurosporine) from cpm obtained in the presence of vehicle. The ability of a test compound to inhibit this activity was determined as:
Percentage inhibition−((cpm determined for sample with test compound present−cpm determined for sample with positive control inhibitor) divided by (cpm determined in the presence of vehicle−cpm determined for sample with positive control inhibitor))*100. […]

Where “and” joins values, the source holds several entries; their conditions need not be identical. Equal values may be shown once. Read-outs that look alike come from different tables or passages of the source.

T1 sequence (P23458 866-1154): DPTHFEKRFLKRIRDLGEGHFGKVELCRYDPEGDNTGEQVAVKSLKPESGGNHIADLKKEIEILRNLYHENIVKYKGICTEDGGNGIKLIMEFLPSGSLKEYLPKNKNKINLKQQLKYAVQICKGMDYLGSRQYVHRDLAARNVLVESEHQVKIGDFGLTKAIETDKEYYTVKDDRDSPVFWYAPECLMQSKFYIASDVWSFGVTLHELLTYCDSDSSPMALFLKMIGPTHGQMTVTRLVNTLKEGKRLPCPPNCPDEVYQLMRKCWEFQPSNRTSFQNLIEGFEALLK

As for `Nc1nc2cccc(-c3ccc(CN4CCS(=O)(=O)CC4)cc3)n2n1` [Formula I, 5-[4-(1,1-Dioxothiomorpholin-4-ylmethyl)-phenyl]-[1,2,4]triazolo[1,5-a]pyridin-2-ylamine], the IC50 in test [1] is 15400 nM; in test [2] (average, read-out: IC50 (average)) it was 546 nM; in test [2] (individual determinations, read-out: IC50), 460 nM and 586 nM and 494 nM and 758 nM and 433 nM.

Broadly, the IC50 is the concentration that inhibits the measured activity by half.

The values above are taken from patent US20160296529A1, “AMINOTRIAZOLOPYRIDINE FOR USE IN THE TREATMENT OF INFLAMMATION, AND PHARMACEUTICAL COMPOSITIONS THEREOF” (priority 2012, published 2016).
